Measured values reported in the supplement of paper PMC4862054.

System: MDA-MB-453
Assay: normalised response (% of control), CellTox Green; higher = less cell death (100 = DMSO, 0 = benzethonium chloride kill control)
Details: incubation time: 72 h
Summary of the method: (§1)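 In 384-well plates holding compound at 5 concentrations in 10-fold steps over a 10,000-fold range specific to each compound, breast cancer cell lines were seeded as 20 µl suspension and incubated 72 h. CellTox Green fluorescence was measured at 485/520 nm, after which CellTiter-Glo luminescence was measured following 10 min at room temperature. Plate signals were normalised to 0.1 % DMSO (100) and a positive kill control (0), and each value is the normalised signal at a single concentration.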

| Structure (SMILES) | normalised response [%] |
| --- | --- |
| COc1cc2c(Oc3ccc4[nH]c(C)cc4c3F)ncnc2cc1OCCCN1CCCC1 [Cediranib] (10 nM) | 107 |
| C=CC(=O)N1CCC[C@@H](n2nc(-c3ccc(Oc4ccccc4)cc3)c3c(N)ncnc32)C1 [Ibrutinib] (10 nM) | 77.9 |
| O=C(Cc1ccc(-c2ccc(OCCN3CCOCC3)cc2)cn1)NCc1ccccc1 [KX2-391] (100 nM) | 101 |
| O=C(/C=C/c1cccnc1)NCCCCC1CCN(C(=O)c2ccccc2)CC1 [Daporinad] (10 nM) | 105 |
| Nc1ncn([C@H]2C[C@H](O)[C@@H](CO)O2)c(=O)n1 [Decitabine] (100 nM) | 95.8 |
| CC[C@@H]1C(=O)N(C)c2cnc(Nc3ccc(C(=O)NC4CCN(C)CC4)cc3OC)nc2N1C1CCCC1 [BI 2536] (10 nM) | 101 |

System: MDA-MB-436
Assay: as above
Details: incubation time: 72 h
Summary of the method: as §1

| Structure (SMILES) | normalised response [%] |
| --- | --- |
| O=C(O)C1(C(=O)O)CCC1.[NH2-].[NH2-].[Pt+2] [Carboplatin] (100 nM) | 103 |
| Nc1nc(F)nc2c1ncn2[C@@H]1O[C@H](CO)[C@@H](O)[C@@H]1O [Fludarabine] (100 nM) | 101 |
| CNC(=O)c1cc(Oc2ccc(NC(=O)Nc3cc(C(C)(C)C)nn3-c3ccc4ncccc4c3)c(F)c2)ccn1 [Rebastinib] (10 nM) | 85 |
| COc1cc2c(Oc3ccc4[nH]c(C)cc4c3F)ncnc2cc1OCCCN1CCCC1 [Cediranib] (10 nM) | 103 |
| C=CC(=O)N1CCC[C@@H](n2nc(-c3ccc(Oc4ccccc4)cc3)c3c(N)ncnc32)C1 [Ibrutinib] (10 nM) | 100 |
| O=C(Cc1ccc(-c2ccc(OCCN3CCOCC3)cc2)cn1)NCc1ccccc1 [KX2-391] (100 nM) | 76.9 |
| O=C(/C=C/c1cccnc1)NCCCCC1CCN(C(=O)c2ccccc2)CC1 [Daporinad] (10 nM) | 93.7 |
| Nc1ncn([C@H]2C[C@H](O)[C@@H](CO)O2)c(=O)n1 [Decitabine] (100 nM) | 90.2 |
| CC[C@@H]1C(=O)N(C)c2cnc(Nc3ccc(C(=O)NC4CCN(C)CC4)cc3OC)nc2N1C1CCCC1 [BI 2536] (10 nM) | 51.6 |

System: CAL-51
Assay: as above
Details: incubation time: 72 h
Summary of the method: as §1

| Structure (SMILES) | normalised response [%] |
| --- | --- |
| O=C(O)C1(C(=O)O)CCC1.[NH2-].[NH2-].[Pt+2] [Carboplatin] (100 nM) | 90.7 |
| Nc1nc(F)nc2c1ncn2[C@@H]1O[C@H](CO)[C@@H](O)[C@@H]1O [Fludarabine] (100 nM) | 109 |
| CNC(=O)c1cc(Oc2ccc(NC(=O)Nc3cc(C(C)(C)C)nn3-c3ccc4ncccc4c3)c(F)c2)ccn1 [Rebastinib] (10 nM) | 101 |
| COc1cc2c(Oc3ccc4[nH]c(C)cc4c3F)ncnc2cc1OCCCN1CCCC1 [Cediranib] (10 nM) | 109 |
| C=CC(=O)N1CCC[C@@H](n2nc(-c3ccc(Oc4ccccc4)cc3)c3c(N)ncnc32)C1 [Ibrutinib] (10 nM) | 112 |
| O=C(Cc1ccc(-c2ccc(OCCN3CCOCC3)cc2)cn1)NCc1ccccc1 [KX2-391] (100 nM) | 35.6 |
| O=C(/C=C/c1cccnc1)NCCCCC1CCN(C(=O)c2ccccc2)CC1 [Daporinad] (10 nM) | 112 |
| Nc1ncn([C@H]2C[C@H](O)[C@@H](CO)O2)c(=O)n1 [Decitabine] (100 nM) | 76 |
| CC[C@@H]1C(=O)N(C)c2cnc(Nc3ccc(C(=O)NC4CCN(C)CC4)cc3OC)nc2N1C1CCCC1 [BI 2536] (10 nM) | 51.3 |

System: CAL-120
Assay: as above
Details: incubation time: 72 h
Summary of the method: as §1

| Structure (SMILES) | normalised response [%] |
| --- | --- |
| O=C(O)C1(C(=O)O)CCC1.[NH2-].[NH2-].[Pt+2] [Carboplatin] (100 nM) | 104 |
| Nc1nc(F)nc2c1ncn2[C@@H]1O[C@H](CO)[C@@H](O)[C@@H]1O [Fludarabine] (100 nM) | 101 |
| CNC(=O)c1cc(Oc2ccc(NC(=O)Nc3cc(C(C)(C)C)nn3-c3ccc4ncccc4c3)c(F)c2)ccn1 [Rebastinib] (10 nM) | 101 |
| COc1cc2c(Oc3ccc4[nH]c(C)cc4c3F)ncnc2cc1OCCCN1CCCC1 [Cediranib] (10 nM) | 95.1 |
| C=CC(=O)N1CCC[C@@H](n2nc(-c3ccc(Oc4ccccc4)cc3)c3c(N)ncnc32)C1 [Ibrutinib] (10 nM) | 98.7 |
| O=C(Cc1ccc(-c2ccc(OCCN3CCOCC3)cc2)cn1)NCc1ccccc1 [KX2-391] (100 nM) | 87.3 |
| O=C(/C=C/c1cccnc1)NCCCCC1CCN(C(=O)c2ccccc2)CC1 [Daporinad] (10 nM) | 100 |
| Nc1ncn([C@H]2C[C@H](O)[C@@H](CO)O2)c(=O)n1 [Decitabine] (100 nM) | 90.5 |
| CC[C@@H]1C(=O)N(C)c2cnc(Nc3ccc(C(=O)NC4CCN(C)CC4)cc3OC)nc2N1C1CCCC1 [BI 2536] (10 nM) | 88.2 |

System: HCC1937
Assay: as above
Details: incubation time: 72 h
Summary of the method: as §1

| Structure (SMILES) | normalised response [%] |
| --- | --- |
| O=C(O)C1(C(=O)O)CCC1.[NH2-].[NH2-].[Pt+2] [Carboplatin] (100 nM) | 75.2 |
| Nc1nc(F)nc2c1ncn2[C@@H]1O[C@H](CO)[C@@H](O)[C@@H]1O [Fludarabine] (100 nM) | 116 |
| CNC(=O)c1cc(Oc2ccc(NC(=O)Nc3cc(C(C)(C)C)nn3-c3ccc4ncccc4c3)c(F)c2)ccn1 [Rebastinib] (10 nM) | 94.3 |
| COc1cc2c(Oc3ccc4[nH]c(C)cc4c3F)ncnc2cc1OCCCN1CCCC1 [Cediranib] (10 nM) | 119 |
| C=CC(=O)N1CCC[C@@H](n2nc(-c3ccc(Oc4ccccc4)cc3)c3c(N)ncnc32)C1 [Ibrutinib] (10 nM) | 118 |
| O=C(Cc1ccc(-c2ccc(OCCN3CCOCC3)cc2)cn1)NCc1ccccc1 [KX2-391] (100 nM) | 98.5 |
| O=C(/C=C/c1cccnc1)NCCCCC1CCN(C(=O)c2ccccc2)CC1 [Daporinad] (10 nM) | 101 |
| Nc1ncn([C@H]2C[C@H](O)[C@@H](CO)O2)c(=O)n1 [Decitabine] (100 nM) | 91.4 |
| CC[C@@H]1C(=O)N(C)c2cnc(Nc3ccc(C(=O)NC4CCN(C)CC4)cc3OC)nc2N1C1CCCC1 [BI 2536] (10 nM) | 116 |
